Experimental data published in patent EP4635958A1, “PYRIMIDINE-CONTAINING POLYCYCLIC DERIVATIVE INHIBITOR, AND PREPARATION METHOD THEREFOR AND USE THEREOF” (Shanghai Hansoh Biomedical Co., Ltd., priority 2022, dated 2024).

Tests used:
KRAS WT = KRAS WT (Homo sapiens, UniProt P01116); experiment: KRAS WT biochemical assay (Table 1, no method of its own); assay type: binding
KRAS G12D-SOS1 = molecular target: T1, KRAS G12D-SOS1 (Homo sapiens, UniProt P01116, G12D); experiment: Blocking of KRAS G12D-SOS1 protein binding (Cisbio KRAS-G12D/SOS1 Binding Assay Kit, time-resolved fluorescence)
T1 construct: purchased Cisbio 63ADK000CB17PEG
Description: • 1. Experimental objective: […] Experimental reagents and instruments The centrifuge (5810R) was purchased from Eppendorf; the pipette was purchased from Eppendorf or Rainin; and the microplate reader was purchased from BioTek (United States) with a model of SynergyH1 multifunctional microplate reader. KRAS-G12D/SOS1 Binding Assay Kit was purchased from Cisbio, with a catalog number of 63ADK000CB17PEG; GTP was purchased from Sigma, with a catalog number of G8877; 384-well plate was purchased from Perkin Elmer, with a catalog number of 6007299. The Diluent buffer in the kit was used to dilute the compound into 10× compound solution of different concentrations, and 2 uL was added to each well of the 384-well plate. Tag2-KRAS G12D protein and GTP were formulated into a mixed solution of 5×KRAS G12D-GTP protein using Diluent buffer, and Tag1-SOS1 protein was formulated into a 5×SOS1 protein solution using Diluent buffer. Each solution was added to the 384-well plate separately at 4 uL per well, and incubated at room temperature for 15 min. A mixed solution of 2× anti-Tag1-Tb^3+ and anti-Tag2-XL665 formulated using detection buffer was added to the 384-well plate at 10 µL per well, and incubated at 4°C in the dark for 3 h.

p-ERK in AsPC-1 cells = experiment: Inhibition of p-ERK in AsPC-1 cells (LANCE Ultra phospho-ERK1/2 kit); assay type: cell-based; conditions: Homo sapiens, ASPC1, 2 h with compound, read-out: AsPC-1_pERK IC50
Method: 1. Experimental objective: The inhibition activity of the example compounds on the phosphorylated ERK level in KRAS G12D mutant cells AsPC-1 was determined. 2. Experimental instruments: • 2.1 Instruments: Microplate reader (BioTek Synergy H1); Pipette (Eppendorf & Rainin) • 2.2 Reagents: Phosphorylated ERK1/2 (T202-Y204) LANCE Ultra Cellular Detection Kit was purchased from PerkinElmer, with a catalog number of TRF4000M; DMEM was purchased from Gibco, with a catalog number of 11995065; FBS was purchased from Gibco, with a catalog number of 10091148; PBS was purchased from Gibco, with a catalog number of 10010023; trypsin was purchased from Gibco, with a catalog number of 25200056; cell culture plates were purchased from Corning Company, with a catalog number of 3610; White opaque OptiPlate™-384 plates were purchased from PerkinElmer, with a catalog number of 6007290. 3. Experimental method: When AsPC-1 cells were cultured to appropriate confluence, the AsPC-1 cells were collected, and the cell density was adjusted to 1 × 10^6/mL using complete culture medium. […] The plate was read using BioTek Synergy H1 and the signal values at the emission wavelengths of 620 nm and 665 nm were detected using a time-resolved fluorescence program. […]

[1] = rat, plasma

Chain of KRAS WT (P01116 1-188 isoform P01116-2): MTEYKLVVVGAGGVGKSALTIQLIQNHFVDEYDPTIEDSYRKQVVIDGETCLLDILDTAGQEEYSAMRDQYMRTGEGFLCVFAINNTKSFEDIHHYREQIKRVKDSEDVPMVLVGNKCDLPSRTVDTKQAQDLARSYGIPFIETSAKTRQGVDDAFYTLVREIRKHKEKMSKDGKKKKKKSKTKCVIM
T1 sequence (P01116 1-188 isoform P01116-2 G12D): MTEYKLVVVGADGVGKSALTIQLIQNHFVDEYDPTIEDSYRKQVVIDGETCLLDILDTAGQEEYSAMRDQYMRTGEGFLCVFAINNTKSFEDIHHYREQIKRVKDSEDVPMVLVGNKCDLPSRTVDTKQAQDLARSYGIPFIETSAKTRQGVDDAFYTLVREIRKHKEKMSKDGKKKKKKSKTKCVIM

| Compound | IC50 (KRAS WT) [nM] | IC50 (KRAS G12D-SOS1) [nM] | IC50 (p-ERK in AsPC-1 cells) [nM] | Remaining rate (%) 0 min ([1]; 0 h) [%] | Remaining rate (%) 15 min ([1]; 0.25 h) [%] | Remaining rate (%) 30 min ([1]; 0.5 h) [%] | Remaining rate (%) 60 min ([1]; 1 h) [%] | Remaining rate (%) 120 min ([1]; 2 h) [%] |
| --- | --- | --- | --- | --- | --- | --- | --- | --- |
| C#Cc1c(F)ccc2cc(O)cc(-c3nc4c5c(nc(OCC6(CN7CCC(=C(F)F)CC7)CC6)nc5c3F)N3C[C@H]5CC[C@H](N5)[C@H]3CO4)c12 [Example 1-1, 4-((5aS,6S,9R)-12-((1-((4-(difluoromethylene)piperidin-1-yl)methyl)cyclopropyl)methoxy)-1-fluoro-5a,6,7,8,9,10-hexahydro-5H-4-oxa-3,10a,11,13,14-pentaaza-6,9-methylenenaphtho[1,8-ab]heptalene-2-yl)-5-ethynyl-6-fluoronaphthalen-2-ol] | 79 | 1.8 | 1 | – | – | – | – | – |
| [2H]C([2H])([2H])[C@@H]1Oc2nc(-c3cc(O)cc4ccc(F)c(C#C)c34)c(F)c3nc(OCC4(CN5CCC(=C(F)F)CC5)CC4)nc(c23)N2C[C@H]3CC[C@H](N3)[C@@H]12 [Example 161, 4-((5S,5aS,6S,9R)-12-((1-((4-(difluoromethylene)piperidin-1-yl)methyl)cyclopropyl)methoxy)-1-fluoro-5-(methyl-d3)-5a,6,7,8,9,10-hexahydro-5H-4-oxa-3,10a,11,13,14-pentaaza-6,9-methylnaphtho[1,8-ab]hept-2-yl)-5-ethynyl-6-fluoronaphthalen-2-ol] | – | – | – | 100.00 | 94.50 | 98.84 | 98.63 | 95.03 |
